In article PMC6615261, “Repurposing Azithromycin and Rifampicin Against Gram-Negative Pathogens by Combination With Peptidomimetics” (Frontiers in Cellular and Infection Microbiology, 2019):

What was measured:
MDR E. coli ST131 = test: Screening of peptidomimetic-antibiotic combinations (growth / growth inhibition); assay type: cell-based, Escherichia coli; design: key to Growth in combination with RIF / Growth in combination with AZM: Growth (+); growth inhibition (–); settings: for Growth in combination with AZM: peptidomimetic 0.5 μM + azithromycin 1 μg/mL; for Growth in combination with RIF: peptidomimetic 0.5 μM + rifampicin 0.5 μg/mL; for Potentiation in the screening, rifampicin or azithromycin: 0.5 μM peptidomimetic
Description: (§1) Minimal inhibitory concentrations (MICs) of peptidomimetics, antibiotics and their combinations were determined by broth microdilution according to the Clinical Laboratory Standards Institute performance standards (Clinical and Laboratory Standards Institute, [2013]). […] Since rifampicin and azithromycin mainly are used to treat infections with Gram-positive pathogens only CLSI clinical breakpoints were available for such bacteria. […] Potentiation of additional antibiotics by peptidomimetics was determined by using commercial 96-well plates containing varied concentrations of standard antibiotics (COMPAN1F; Trek Diagnostic Systems Inc.). The peptidomimetics were added immediately prior to inoculation with pathogen, and then MICs were determined as above. The MICs of peptidomimetic/antibiotic combinations were determined according to the method above, and the concentration ratios were selected based upon checkerboard results with 2:1 and 1:4 ratio of peptidomimetic with rifampicin or azithromycin, respectively. Minimal bactericidal concentrations (MBCs) were determined by using growth-curve assay plates. MIC plates were prepared as above, and then the plates were incubated at 37°C with continuous shaking. Growth was recorded at 10 min intervals as optical density (OD) at 600 nm during 24 h. At 24 h, for wells without growth, a sample was diluted 10-fold in sterile saline (0.9% sodium chloride) and plated onto MHA, following CLSI guidelines (Clinical and Laboratory Standards Institute, [1999]).

K. pneumoniae ST258 = test: as above; assay type: cell-based, Klebsiella pneumoniae; design: key to Growth in combination with RIF / Growth in combination with AZM: Growth (+); growth inhibition (–); settings: for Growth in combination with AZM: peptidomimetic 0.5 μM + azithromycin 1 μg/mL; for Growth in combination with RIF: peptidomimetic 0.5 μM + rifampicin 0.5 μg/mL; for Potentiation in the screening, rifampicin or azithromycin: 0.5 μM peptidomimetic
Description: as §1

Substance | Growth in combination with AZM (MDR E. coli ST131) | Growth in combination with RIF (MDR E. coli ST131) | Growth in combination with AZM (K. pneumoniae ST258) | Growth in combination with RIF (K. pneumoniae ST258) | Potentiation in the screening, rifampicin or azithromycin (MDR E. coli ST131) | Potentiation in the screening, rifampicin or azithromycin (K. pneumoniae ST258)
Ac-(hArg-βNPhe)8-NH2 [Peptidomimetic 2] | + | + | + | + |  | 
VNW(NLys)2VL(NLys)2II(NLys)VA(NLys)-NH2 [Peptidomimetic 30] | + | + | + | + |  | 
Ac-(NLys-NPhe)8-NH2 [Peptidomimetic 22] | – | – | + | + |  | 
R(Tbt)R(hPhe)-NH2 [Peptidomimetic 38] | + | + | + | + |  | 
Pam-(Lys-βNspe-hArg-βNspe)3-NH2 [Peptidomimetic 12] | + | + | + | + | did not exhibit any potentiation activity | did not exhibit any potentiation activity
Pam-(Lys-βNspe-hArg-βNspe)-NH2 [Peptidomimetic 9] | + | + | + | + | did not exhibit any potentiation activity | did not exhibit any potentiation activity
Lau-Dap(Lau)-(Lys-βNspe-hArg-βNspe)3-NH2 [Peptidomimetic 40] | + | + | + | + |  | 
Ac-(azaLys-βNspe-Lys-βNspe)4-NH2 [Peptidomimetic 17] | + | + | + | + |  | 
Ac-[(S)-Aoc]-(Lys-βNPhe)6-NH2 [Peptidomimetic 41] | – | – | + | + |  | 
Pam-(Lys-βNspe)6-NH2 [Peptidomimetic 34] | + | + | + | + |  | 
Ac-(hArg-βNchx)6-NH2 [Peptidomimetic 7] | + | + | + | + |  | 
Ac-(Lys-βNspe)8-NH2 [Peptidomimetic 5] | – | – | + | + |  | 
p-CF3-benzoyl-(Lys-Phe)8-NH2 [Peptidomimetic 23] | + | + | + | + |  | 
Ac-(hArg-βNspe)7-NH2 [Peptidomimetic 4] | + | + | + | + |  | 
Cin-(Lys-Phe)8-NH2 [Peptidomimetic 24] | + | + | + | + |  | 
(NLys)W(NLys)LF(NLys)2VL(NLys)VLTTG-NH2 [Peptidomimetic 33] | + | + | + | + |  | 
Ac-(Lys-NTrp)8-NH2 [Peptidomimetic 19] | – | + | + | + |  | 
